Experiment: Anti-edema activity, conventional toe edema method using carrageenan as pyrogen and indomethacin as control inhibitory agent
Type: in vivo
Conditions: inhibition rate above 30% considered also antiinflammatory
Protocol: The anti-edema activity was tested according to the conventional toe edema method using carrageenan as pyrogen and indomethacin as control inhibitory agent. See C. A. Winter, E. A. Risley and G. W. Nuss, Biol. Med., 111, 544 (1962); and A. P. Roszkowshi, W. H. Rooks II, A. J. Tomolonis and L. M. Miller, J. Pharmacol. Exp. Ther., 179, 114 (1971), both of which are hereby incorporated by reference.
In general, polythiophene derivatives of this invention have shown significant anti-edema activity.

Row | SMILES | Anti-edema effect, inhibition rate (dosage 10 mg/kg) [%] | Anti-edema effect, inhibition rate (dosage 50 mg/kg) [%] | Anti-edema effect, inhibition rate (dosage 100 mg/kg) [%] | Anti-edema effect, inhibition rate (dosage 200 mg/kg) [%]
1 | OCc1ccc(-c2ccc(CO)s2)s1 | 26 | 34 | 37 | 41
2 | CC(=O)OCc1ccc(-c2ccc(COC(C)=O)s2)s1 | – | 17 | 28 | 28
3 | OCCC#Cc1ccc(-c2cccs2)s1 | – | 32 | 36 | 38
